Like-named read-outs stand apart in the source and are kept apart here.
Assays:
[1] = molecular target: T1, human Tdp1 (residues 149-608) (Homo sapiens, UniProt Q9NUW8); test: Intrinsic protein fluorescence-based Tdp1 binding assay; conditions: supplementary figure legends; Tdp1 10 μM, 20 mM Tris, 250 mM NaCl, pH 8, triplicate
T1 construct: human Tdp1 (residues 149-608); made in house; host or cells: Escherichia coli BL21(DE3)
Protocol: In addition to the inhibition assay, the binding of our compounds to Tdp1 was also evaluated. An intrinsic protein fluorescence-based assay, which we have previously applied to study the binding of esters combining monoterpenoid and adamantane fragments, was applied. In agreement with the inhibition data, all our compounds were relatively strong binders to Tdp1, with dissociation constants (KD) in the low μM region (Table 1 and Supplementary Figures S1–S7). […] This is possibly due to the large hydrophobic surface of Tdp1. The slight discrepancy between the measured KD and IC50 values is likely due to these non-specific binding events.
Synthetic DNA encoding human Tdp1 (residues 149-608 [2]) was cloned into pET-28a(+) (GenScript), which was then transformed into Escherichia coli BL21(DE3) for recombinant protein production. Protein production was induced with 1 mM IPTG at 28 °C with overnight incubation. Tdp1 was purified using affinity and size exclusion chromatography. Fluorescence was measured using a PerkinElmer EnSpire Multimode Reader. Tdp1 concentration was 10 μM and compound concentrations were 1 μM, 2.5 μM, 5 μM, 10 μM, 15 μM, 20 μM, 30 μM, 50 μM, 100 μM, 200 μM, 350 μM, 500 μM, and 750 μM. Buffer was 20 mM Tris and 250 mM NaCl (pH 8). Excitation wavelength was 280 nm and intrinsic fluorescence was measured between 300 and 450 nm. Control experiments with Tdp1 or compound on its own were also conducted. Background fluorescence arising from the compounds was subtracted from the final spectrum. The total volume per well was 30 μL. Dissociation constant (KD) values were calculated using the following formula (1), which takes non-specific binding into account. I = Imax ×[LT]/KD+[LT] +Ns[LT]
I indicates changes in fluorescence intensity from the titrations, Imax indicates the maximum fluorescence intensity change, [LT] is the titrated ligand concentration, and Ns is the non-specific term. Non-linear curve fitting was conducted using SigmaPlot 13.0 (Systat Software, San Jose, CA, USA). Experiments were conducted in triplicate and the errors shown are standard derivations.

[2] = molecular target: T2, Tdp1 (Homo sapiens, UniProt Q9NUW8); test: Real-time oligonucleotide biosensor-based Tdp1 inhibition assay; type: biochemical
T2 construct: inferred from pET 16B vector and Ni-chelating resin; made in house; host or cells: Escherichia coli BL21(DE3)
T2 sequence (Q9NUW8 whole entry): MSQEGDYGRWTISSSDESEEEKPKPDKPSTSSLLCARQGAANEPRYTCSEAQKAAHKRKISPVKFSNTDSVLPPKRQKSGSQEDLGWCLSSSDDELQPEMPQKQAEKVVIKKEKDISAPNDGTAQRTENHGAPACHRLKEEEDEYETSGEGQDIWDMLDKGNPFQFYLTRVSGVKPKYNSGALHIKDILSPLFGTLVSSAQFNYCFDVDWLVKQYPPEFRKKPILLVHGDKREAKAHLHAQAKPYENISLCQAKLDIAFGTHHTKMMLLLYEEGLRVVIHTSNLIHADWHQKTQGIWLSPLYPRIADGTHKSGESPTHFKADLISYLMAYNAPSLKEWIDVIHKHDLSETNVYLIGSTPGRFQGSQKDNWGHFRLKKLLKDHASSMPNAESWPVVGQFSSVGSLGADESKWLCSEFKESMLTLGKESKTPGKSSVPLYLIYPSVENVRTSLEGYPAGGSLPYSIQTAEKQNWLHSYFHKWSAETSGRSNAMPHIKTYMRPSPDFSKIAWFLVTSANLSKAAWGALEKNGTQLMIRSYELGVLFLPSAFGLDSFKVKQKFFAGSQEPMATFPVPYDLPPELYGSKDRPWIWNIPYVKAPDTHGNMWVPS
Protocol: The inhibition potency of our synthesised compounds against Tdp1 was evaluated by using a real-time oligonucleotide biosensor-based assay. In this assay, Tdp1 catalyses the removal of fluorophore quenchers from the 3′-end of a modified DNA substrate. […] Hexadecameric oligonucleotide was selected as a Tdp1 substrate, as it contains 5(6)-carboxyfluorescein (FAM) at the 5′-end and fluorophore quencher BHQ1 (Black Hole Quencher-1) at the 3′-end. This approach was used to determine the inhibitory properties of all the chromenes.
The pET 16B-Tdp1 was kindly provided by Dr. K.W. Caldecott (University of Sussex, United Kingdom). Recombinant Tdp1 was expressed in Escherichia coli BL21(DE3) and was purified by chromatography on Ni-chelating resin and phosphocellulose P11, as described in [29].
Real-time Tdp1 activity measurements were carried out as described in [9]. In brief, Tdp1-biosensor (50 nM) was incubated in a buffer that contains 50 mM Tris-HCl pH 8.0, 50 mM NaCl, and 7 mM β-mercaptoethanol (200 μL). The mixture was then supplemented with purified Tdp1 (1.3 nM) and various concentrations of the inhibitor. Fluorescence measurements (Ex485/Em520 nm) were carried out during the linear phase of reaction (from 0 to 8 min) every 55 s. The reactions were incubated at a constant temperature of 26 °C using a POLARstar OPTIMA fluorimeter (BMG LABTECH). The influence of the compounds was evaluated by comparing the fluorescence increase rate in their presence to that of 1.5% DMSO control wells. The data were imported into the MARS Data Analysis 2.0 program (BMG LABTECH), and IC50 values were calculated by non-linear curve fitting.

[3] = molecular target: T2, Tdp1; conditions: Figure 1; cited from earlier work

T1 sequence (Q9NUW8 149-608): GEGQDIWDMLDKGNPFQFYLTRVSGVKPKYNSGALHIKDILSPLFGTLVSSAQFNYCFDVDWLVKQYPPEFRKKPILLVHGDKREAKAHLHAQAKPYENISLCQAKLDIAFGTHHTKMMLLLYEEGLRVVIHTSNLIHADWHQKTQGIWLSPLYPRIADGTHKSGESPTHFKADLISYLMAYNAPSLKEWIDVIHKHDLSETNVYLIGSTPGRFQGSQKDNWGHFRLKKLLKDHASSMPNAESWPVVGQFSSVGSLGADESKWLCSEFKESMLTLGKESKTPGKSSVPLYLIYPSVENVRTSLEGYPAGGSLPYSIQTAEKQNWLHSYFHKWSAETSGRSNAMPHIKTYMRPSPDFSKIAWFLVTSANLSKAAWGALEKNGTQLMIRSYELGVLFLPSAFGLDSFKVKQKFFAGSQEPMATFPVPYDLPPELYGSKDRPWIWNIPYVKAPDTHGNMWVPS

SMILES	Kd [1] [µM]	IC50 ([2]; Table 1, (4R) diastereomer) [µM]	IC50 ([2]; Table 2) [µM]	IC50 ([2]; Table 1, (4S) diastereomer) [µM]	IC50 [3] [µM]
C[C@@H]1CC[C@@H]2[C@@H](C1)O[C@@H](c1ccc([N+](=O)[O-])s1)C[C@@]2(C)O [(4R)-8, (2R,4aR,7R,8aS)-4,7-Dimethyl-2-(5-nitrothiophen-2-yl)octahydro-2H-chromen-4-ols]	23.3 ± 7.4	> 15	> 15		
C[C@@H]1CC[C@@H]2[C@H](C1)O[C@@H](c1ccc(N)s1)C[C@@]2(C)O [(4R)-9, (2R,4R,4aR,7R,8aS)-4,7-Dimethyl-2-(5-aminothiophen-2-yl)octahydro-2H-chromen-4-ol]		> 15	> 15		
CC(=O)Nc1ccc([C@H]2C[C@@](C)(O)[C@@H]3CC[C@@H](C)C[C@H]3O2)s1 [(4R)-10, N-(5-((2R,4R,4aR,7R,8aR)-4-Hydroxy-4,7-dimethyloctahydro-2H-chromen-2-yl)thiophen-2-yl)acetamide]		2.9 ± 0.8			
C[C@@H]1CC[C@@H]2[C@@H](C1)O[C@@H](c1ccc(NC(=O)C(F)(F)F)s1)C[C@@]2(C)O [(4R)-11, 2,2,2-Trifluoro-N-(5-((2R,4R,4aR,7R,8aR)-4-hydroxy-4,7-dimethyloctahydro-2H-chromen-2-yl)thiophen-2-yl)acetamide]	19.8 ± 2.4	4 ± 0.4			
C[C@@H]1CC[C@@H]2[C@@H](C1)O[C@@H](c1ccc(NC(=O)c3ccccc3)s1)C[C@@]2(C)O [(4R)-12, N-(5-((2R,4R,4aR,7R,8aR)-4-Hydroxy-4,7-dimethyloctahydro-2H-chromen-2-yl)thiophen-2-yl)benzamide]		3.3 ± 0.2			
C[C@@H]1CC[C@@H]2[C@H](C1)O[C@@H](c1ccc(NC(=O)C34CC5CC(CC(C5)C3)C4)s1)C[C@@]2(C)O [(4R)-13, N-(5-((2R,4R,4aR,7R,8aS)-4-Hydroxy-4,7-dimethyloctahydro-2H-chromen-2-yl)thiophen-2-yl)adamantane-1-carboxamide]	12.4 ± 7.5	2.8 ± 0.6			
C[C@@H]1CC[C@@H]2[C@@H](C1)O[C@@H](c1ccc([N+](=O)[O-])s1)C[C@]2(C)O [(4S)-8, (2R,4aR,7R,8aS)-4,7-Dimethyl-2-(5-nitrothiophen-2-yl)octahydro-2H-chromen-4-ols]	30.6 ± 9.33		> 15	> 15	
C[C@@H]1CC[C@@H]2[C@H](C1)O[C@@H](c1ccc(N)s1)C[C@]2(C)O [(4S)-9, (2R,4S,4aR,7R,8aS)-4,7-dimethyl-2-(5-aminothiophen-2-yl)octahydro-2H-chromen-4-ol]			> 15	> 15	
CC(=O)Nc1ccc([C@H]2C[C@](C)(O)[C@@H]3CC[C@@H](C)C[C@H]3O2)s1 [(4S)-10, N-(5-((2R,4S,4aR,7R,8aR)-4-Hydroxy-4,7-dimethyloctahydro-2H-chromen-2-yl)thiophen-2-yl)acetamide]				5.8 ± 3	
C[C@@H]1CC[C@@H]2[C@@H](C1)O[C@@H](c1ccc(NC(=O)C(F)(F)F)s1)C[C@]2(C)O [(4S)-11, 2,2,2-Trifluoro-N-(5-((2R,4S,4aR,7R,8aR)-4-hydroxy-4,7-dimethyloctahydro-2H-chromen-2-yl)thiophen-2-yl)acetamide]	2 ± 1.2			1.4 ± 0.3	
C[C@@H]1CC[C@@H]2[C@@H](C1)O[C@@H](c1ccc(NC(=O)c3ccccc3)s1)C[C@]2(C)O [(4S)-12, N-(5-((2R,4S,4aR,7R,8aR)-4-Hydroxy-4,7-dimethyloctahydro-2H-chromen-2-yl)thiophen-2-yl)benzamide]	24.5 ± 5.7			5 ± 1.5	
C[C@@H]1CC[C@@H]2[C@H](C1)O[C@@H](c1ccc(NC(=O)C34CC5CC(CC(C5)C3)C4)s1)C[C@]2(C)O [(4S)-13, N-(5-((2R,4S,4aR,7R,8aS)-4-Hydroxy-4,7-dimethyloctahydro-2H-chromen-2-yl)thiophen-2-yl)adamantane-1-carboxamide]	17.9 ± 3.4			1.24 ± 0.02	
O=c1cccc([C@H]2[C@H](c3ccc(O)cc3)[C@H](c3cccc(=O)o3)[C@H]2c2ccc(O)cc2)o1 [Compound 2, achyrodimer F]					1
CC1(C)[C@H]2CC=C(COc3ccc4c5c(c(=O)oc4c3)CCC5)[C@@H]1C2 [Compound 3]					0.675

— publication PMC6222798, “A Novel Class of Tyrosyl-DNA Phosphodiesterase 1 Inhibitors That Contains the Octahydro-2H-chromen-4-ol Scaffold” (Molecules : A Journal of Synthetic Chemistry and Natural …, 2018)
